Assay results from US11447505B1, “Pyrrolo[2,3-b]pyridine compounds and their use in the treatment of cancer” (priority 2017, dated 2022).

Key:
ROCK2 = ROCK2 (Homo sapiens (Human), UniProt O75116); assay: ROCK2 kinase assay (IMAP fluorescence polarization); type: biochemical; settings: 1 μM ATP; read-out: ROCK2 Average Ki
ROCK1 = ROCK1 (Homo sapiens (Human), UniProt Q13464); settings: read-out: ROCK1 Average Ki; 1 μM ATP
MRCKβ = MRCKβ (Homo sapiens (Human), UniProt Q9Y5S2); assay: MRCKβ kinase assay (IMAP fluorescence polarization); type: biochemical; settings: 1 μM ATP; read-out: MRCK-B Average Ki
Excerpt: MRCKα, MRCKβ, ROCK1 and ROCK2 Kinase Assays

Chain of ROCK2 (O75116 whole entry): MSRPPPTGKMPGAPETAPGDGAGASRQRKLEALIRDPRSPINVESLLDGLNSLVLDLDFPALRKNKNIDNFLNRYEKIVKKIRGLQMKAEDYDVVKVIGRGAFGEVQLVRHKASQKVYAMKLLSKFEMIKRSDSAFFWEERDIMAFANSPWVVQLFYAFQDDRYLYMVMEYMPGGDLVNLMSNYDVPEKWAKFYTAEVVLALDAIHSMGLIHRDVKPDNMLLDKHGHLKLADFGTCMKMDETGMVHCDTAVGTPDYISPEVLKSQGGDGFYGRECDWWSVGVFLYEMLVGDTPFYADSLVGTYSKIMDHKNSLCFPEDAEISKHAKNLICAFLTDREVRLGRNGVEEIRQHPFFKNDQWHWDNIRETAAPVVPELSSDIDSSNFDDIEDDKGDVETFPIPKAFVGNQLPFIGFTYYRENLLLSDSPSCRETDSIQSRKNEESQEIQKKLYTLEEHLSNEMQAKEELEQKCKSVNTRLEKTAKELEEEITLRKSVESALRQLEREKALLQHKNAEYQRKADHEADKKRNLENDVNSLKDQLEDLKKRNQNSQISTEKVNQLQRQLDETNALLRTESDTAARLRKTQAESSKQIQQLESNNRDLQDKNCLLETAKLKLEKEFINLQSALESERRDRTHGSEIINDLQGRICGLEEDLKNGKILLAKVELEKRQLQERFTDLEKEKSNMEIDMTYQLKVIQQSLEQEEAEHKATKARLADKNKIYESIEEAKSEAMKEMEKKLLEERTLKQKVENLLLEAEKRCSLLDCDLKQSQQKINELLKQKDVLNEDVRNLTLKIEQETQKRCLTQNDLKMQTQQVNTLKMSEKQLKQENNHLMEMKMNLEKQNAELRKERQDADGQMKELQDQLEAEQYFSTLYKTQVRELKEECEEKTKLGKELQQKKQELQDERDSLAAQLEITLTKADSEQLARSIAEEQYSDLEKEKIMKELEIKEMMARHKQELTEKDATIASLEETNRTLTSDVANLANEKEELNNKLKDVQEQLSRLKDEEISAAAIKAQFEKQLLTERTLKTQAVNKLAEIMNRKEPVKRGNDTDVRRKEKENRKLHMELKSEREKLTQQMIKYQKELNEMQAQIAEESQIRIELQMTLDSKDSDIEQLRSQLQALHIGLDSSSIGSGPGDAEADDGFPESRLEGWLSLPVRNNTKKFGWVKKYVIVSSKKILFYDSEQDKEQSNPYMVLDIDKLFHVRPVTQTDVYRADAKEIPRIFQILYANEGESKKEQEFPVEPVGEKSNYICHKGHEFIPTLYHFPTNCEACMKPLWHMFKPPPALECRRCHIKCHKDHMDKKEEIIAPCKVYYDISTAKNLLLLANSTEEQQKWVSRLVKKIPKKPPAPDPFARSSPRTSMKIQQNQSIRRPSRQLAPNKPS
Chain of ROCK1 (Q13464 2-1354 limits assumed): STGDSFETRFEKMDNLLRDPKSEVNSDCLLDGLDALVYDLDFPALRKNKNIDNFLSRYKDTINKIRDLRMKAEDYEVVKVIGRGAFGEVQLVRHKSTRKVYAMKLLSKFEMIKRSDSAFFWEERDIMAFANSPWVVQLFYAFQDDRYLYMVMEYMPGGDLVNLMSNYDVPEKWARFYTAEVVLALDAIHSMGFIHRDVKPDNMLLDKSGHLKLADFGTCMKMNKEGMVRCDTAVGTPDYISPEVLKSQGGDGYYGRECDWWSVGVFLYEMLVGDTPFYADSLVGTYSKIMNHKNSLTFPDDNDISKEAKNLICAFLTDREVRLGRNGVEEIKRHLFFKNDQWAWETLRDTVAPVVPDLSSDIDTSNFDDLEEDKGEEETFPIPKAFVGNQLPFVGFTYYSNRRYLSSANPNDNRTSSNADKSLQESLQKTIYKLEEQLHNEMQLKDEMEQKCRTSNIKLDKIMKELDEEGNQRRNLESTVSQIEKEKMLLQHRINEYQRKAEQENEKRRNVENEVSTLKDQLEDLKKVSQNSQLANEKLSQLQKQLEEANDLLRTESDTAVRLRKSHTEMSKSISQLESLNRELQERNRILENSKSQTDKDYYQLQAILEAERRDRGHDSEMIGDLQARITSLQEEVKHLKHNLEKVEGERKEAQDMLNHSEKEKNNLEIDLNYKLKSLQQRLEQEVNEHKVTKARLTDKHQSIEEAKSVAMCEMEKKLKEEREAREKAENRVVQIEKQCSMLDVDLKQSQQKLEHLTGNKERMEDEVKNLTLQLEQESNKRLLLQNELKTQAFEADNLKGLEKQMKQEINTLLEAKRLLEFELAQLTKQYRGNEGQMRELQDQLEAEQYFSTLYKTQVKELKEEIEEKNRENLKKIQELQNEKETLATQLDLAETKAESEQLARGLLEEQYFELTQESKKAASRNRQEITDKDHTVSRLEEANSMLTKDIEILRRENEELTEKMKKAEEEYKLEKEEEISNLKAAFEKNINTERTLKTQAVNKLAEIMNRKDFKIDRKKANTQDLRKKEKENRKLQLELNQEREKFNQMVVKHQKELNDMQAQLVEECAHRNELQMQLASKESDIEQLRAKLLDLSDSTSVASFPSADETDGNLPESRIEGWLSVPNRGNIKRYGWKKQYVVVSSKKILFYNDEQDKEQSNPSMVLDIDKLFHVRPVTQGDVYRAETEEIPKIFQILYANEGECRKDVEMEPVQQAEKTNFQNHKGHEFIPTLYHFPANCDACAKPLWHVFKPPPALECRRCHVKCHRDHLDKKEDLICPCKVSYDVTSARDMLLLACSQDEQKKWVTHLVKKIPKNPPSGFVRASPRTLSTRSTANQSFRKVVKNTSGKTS

Row | Structure (SMILES) | Ki (ROCK2) [µM] | Ki (ROCK1) [µM] | Ki (MRCKβ) [µM]
1 | CN1CCN(c2ccnc3[nH]cc(C#N)c23)CC1 [Example E32, 4-(4-methylpiperazin-1-yl)-1H-pyrrolo[2,3-b]pyridine-3-carbonitrile] | 0.164 | 0.237 | 0.147
2 | N#Cc1c[nH]c2nccc(N3CCNCC3)c12 [Example E34, 4-piperazin-1-yl-1H-pyrrolo[2,3-b]pyridine-3-carbonitrile] | 0.0238 | 0.0436 | 0.0528
3 | CN[C@H]1CCCN(c2ccnc3[nH]cc(-c4ncccc4F)c23)C1 [Example E48, (3S)-1-[3-(3-fluoro-2-pyridyl)-1H-pyrrolo[2,3-b]pyridin-4-yl]-N-methyl-piperidin-3-amine] | 0.756 | 3.53 | 0.00173
4 | CN[C@H]1CCCN(c2ccnc3[nH]cc(-c4ccccn4)c23)C1 [Example E49, (3S)-N-methyl-1-[3-(2-pyridyl)-1H-pyrrolo[2,3-b]pyridin-4-yl]piperidin-3-amine] | 0.272 | 50.8 | 0.000506
5 | CN[C@H]1CCCN(c2ccnc3[nH]cc(-c4cncc(F)c4)c23)C1 [Example E50, (3S)-1-[3-(5-fluoro-3-pyridyl)-1H-pyrrolo[2,3-b]pyridin-4-yl]-N-methyl-piperidin-3-amine] | 0.578 | 2.05 | 0.000729
6 | CN[C@H]1CCCN(c2ccnc3[nH]cc(-c4ccc(F)cn4)c23)C1 [Example E51, (3S)-1-[3-(5-fluoro-2-pyridyl)-1H-pyrrolo[2,3-b]pyridin-4-yl]-N-methyl-piperidin-3-amine] | 2.19 | 8.93 | 0.00741
7 | CN[C@H]1CCCN(c2ccnc3[nH]cc(-c4cccnc4)c23)C1 [Example E53, (3S)-N-methyl-1-[3-(3-pyridyl)-1H-pyrrolo[2,3-b]pyridin-4-yl]piperidin-3-amine] | 0.335 | 50.5 | 0.00127
8 | OCCN[C@H]1CCCN(c2ccnc3[nH]cc(-c4cncnc4)c23)C1 [Example E56, 2-[[(3S)-1-(3-pyrimidin-5-yl-1H-pyrrolo[2,3-b]pyridin-4-yl)-3-piperidyl]amino]ethanol] | 0.573 | 1.39 | 0.00223
9 | N[C@H]1CCN(c2ccnc3[nH]cc(-c4cncnc4)c23)C1 [Example E58, (3S)-1-(3-pyrimidin-5-yl-1H-pyrrolo[2,3-b]pyridin-4-yl)pyrrolidin-3-amine] | 0.0858 | 0.158 | 0.00348
10 | NC1CCCN(c2ccnc3[nH]cc(-c4cncnc4)c23)C1 (stereo not drawn) [Example E59, 1-(3-pyrimidin-5-yl-1H-pyrrolo[2,3-b]pyridin-4-yl)piperidin-3-amine] | 0.154 | 0.318 | 0.0069
11 | Cc1[nH]ncc1-c1c[nH]c2nccc(N3CCC[C@H](N)C3)c12 [Example E61, (3S)-1-[3-(5-methyl-1H-pyrazol-4-yl)-1H-pyrrolo[2,3-b]pyridin-4-yl]piperidin-3-amine] | 0.0683 | 0.0932 | 0.0115
12 | CNC1CCCN(c2ccnc3[nH]cc(-c4cncnc4)c23)C1 (stereo not drawn) [Example E62, N-methyl-1-(3-pyrimidin-5-yl-1H-pyrrolo[2,3-b]pyridin-4-yl)piperidin-3-amine] | 0.314 | 0.36 | 0.0041
13 | CNC1CCN(c2ccnc3[nH]cc(-c4cncnc4)c23)CC1 [Example E63, N-methyl-1-(3-pyrimidin-5-yl-1H-pyrrolo[2,3-b]pyridin-4-yl)piperidin-4-amine] | 0.0912 | 0.138 | 0.00198
14 | N[C@@H]1CCCN(c2ccnc3[nH]cc(-c4cncnc4)c23)C1 [Example E64, (3R)-1-(3-pyrimidin-5-yl-1H-pyrrolo[2,3-b]pyridin-4-yl)piperidin-3-amine] | 0.39 | 0.166 | 0.0148
15 | NC1CCN(c2ccnc3[nH]cc(-c4cncnc4)c23)CC1 [Example E65, 1-(3-pyrimidin-5-yl-1H-pyrrolo[2,3-b]pyridin-4-yl)piperidin-4-amine] | 0.138 | 0.128 | 0.00165
16 | CN[C@H]1CCCN(c2ccnc3[nH]cc(-c4cnsc4)c23)C1 [Example E67, (3S)-1-(3-isothiazol-4-yl-1H-pyrrolo[2,3-b]pyridin-4-yl)-N-methyl-piperidin-3-amine] | 0.0364 | 0.109 | 0.000273
17 | CCN[C@H]1CCCN(c2ccnc3[nH]cc(-c4ccnnc4)c23)C1 [Example E71, (3S)—N-ethyl-1-(3-pyridazin-4-yl-1H-pyrrolo[2,3-b]pyridin-4-yl)piperidin-3-amine] | 0.0739 | 0.152 | 0.000802
18 | COCCN[C@H]1CCCN(c2ccnc3[nH]cc(-c4cncnc4)c23)C1 [Example E73, (3S)-N-(2-methoxyethyl)-1-(3-pyrimidin-5-yl-1H-pyrrolo[2,3-b]pyridin-4-yl)piperidin-3-amine] | 0.964 | 2.06 | 0.00571
19 | CN[C@H]1CCCN(c2ccnc3[nH]cc(C#N)c23)C1 [Example E74, 4-[(3S)-3-(methylamino)-1-piperidyl]-1H-pyrrolo[2,3-b]pyridine-3-carbonitrile] | 0.222 | 0.637 | 0.00616
20 | CN[C@H]1CCCN(c2ccnc3[nH]cc(-c4cnc(C)nc4)c23)C1 [Example E75, (3S)-N-methyl-1-[3-(2-methylpyrimidin-5-yl)-1H-pyrrolo[2,3-b]pyridin-4-yl]piperidin-3-amine] | 6.42 | 21.7 | 0.0254
21 | CC(C)N[C@H]1CCCN(c2ccnc3[nH]cc(-c4cncnc4)c23)C1 [Example E76, (3S)-N-isopropyl-1-(3-pyrimidin-5-yl-1H-pyrrolo[2,3-b]pyridin-4-yl)piperidin-3-amine] | 16.8 | 32.4 | 0.871
22 | CN[C@@H]1CCCN(c2ccnc3[nH]cc(-c4cncnc4)c23)C1 [Example E77, (3R)-N-methyl-1-(3-pyrimidin-5-yl-1H-pyrrolo[2,3-b]pyridin-4-yl)piperidin-3-amine] | 0.248 | 0.379 | 0.0105
23 | c1ncc(-c2c[nH]c3nccc(NC4CCCCNC4)c23)cn1 (stereo not drawn) [Example E85, N-(azepan-3-yl)-3-pyrimidin-5-yl-1H-pyrrolo[2,3-b]pyridin-4-amine] | 0.46 | 0.421 | 0.0141
24 | c1ncc(-c2c[nH]c3nccc(N[C@@H]4CCCNC4)c23)cn1 [Example E88, N-[(3R)-3-piperidyl]-3-pyrimidin-5-yl-1H-pyrrolo[2,3-b]pyridin-4-amine] | 0.0704 | 0.0852 | 0.00721
25 | c1ncc(-c2c[nH]c3nccc(NC4CCNCC4)c23)cn1 [Example E89, N-(4-piperidyl)-3-pyrimidin-5-yl-1H-pyrrolo[2,3-b]pyridin-4-amine] | 0.0927 | 0.109 | 0.0205
26 | CNCC1CCCN(c2ccnc3[nH]cc(-c4cncnc4)c23)C1 (stereo not drawn) [Example E90, N-methyl-1-[1-(3-pyrimidin-5-yl-1H-pyrrolo[2,3-b]pyridin-4-yl)-3-piperidyl]methanamine] | 0.217 | 0.148 | 0.00601
27 | c1ncc(-c2c[nH]c3nccc(N4CCCC(N5CCNCC5)C4)c23)cn1 (stereo not drawn) [Example E91, 4-(3-piperazin-1-yl-1-piperidyl)-3-pyrimidin-5-yl-1H-pyrrolo[2,3-b]pyridine] | 0.163 | 0.231 | 0.0495
